From patent US12258337B2, “Bicyclic CX3CR1 receptor agonists” (Board of Regents, The University of Texas System, priority 2019, dated 2025)
pEC50: −log10 of the molar value.

Experiments:
Type in all cases: cell-based
[1] = molecular target: T1, hCX3CR1 (Homo sapiens, UniProt P49238); assay: Ga16 assay, CX3CR1 agonism, Ca2+ sensitive photo-protein readout (FLIPRTETRA); set-up: expressed in transfected cells; stably expresses a Ca2+ sensitive photo-protein; settings: human CX3CR1 cell line
T1 sequence (P49238 1-355): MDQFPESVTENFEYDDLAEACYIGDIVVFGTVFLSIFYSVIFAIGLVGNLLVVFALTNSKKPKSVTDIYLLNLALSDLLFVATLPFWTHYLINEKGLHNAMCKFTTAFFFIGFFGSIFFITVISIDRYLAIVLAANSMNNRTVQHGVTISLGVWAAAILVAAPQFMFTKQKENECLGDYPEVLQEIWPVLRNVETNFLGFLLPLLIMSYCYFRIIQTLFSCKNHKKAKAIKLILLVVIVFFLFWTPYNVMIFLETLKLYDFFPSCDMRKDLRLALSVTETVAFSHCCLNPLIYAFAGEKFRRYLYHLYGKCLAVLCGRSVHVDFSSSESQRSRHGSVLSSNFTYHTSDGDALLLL
Description: (§1) Compounds (as well as stereoisomer(s) thereof and/or salt(s) thereof) were tested for CX3CR1 agonism in a cell based assay with fluorescent readout in Agonist Mode in dose response in quadruplicate with intra-plate modality).
(§2) Buffers and reagents. PBS (D-PBS without calcium and magnesium; EuroClone); Trypsin (Trypsin 0.05%, EDTA 0.02% in PBS; EuroClone); DMSO (Sigma); Standard tyrode buffer: in-house solution (130 mM NaCl, 5 mM KCl, 2 mM CaCl2), 1 mM MgCl2, 5 mM NaHCO3, 20 mM HEPES in water at pH 7.4; sterile filtered); Coelenterazine, native (Biosynth); stock 10 mM; Agonist: Recombinant Human Fractalkine (CX3CL1) (PeproTech); stock: 10 μM in standard tyrode buffer+BSA 0.1%; stored at −20° C.
(§3) Cell line. Human (hCX3CR1), mouse (mCX3CR1), and rat (rCX3CR1) were used for the assay.
(§4) Assay protocol. Experiments ere performed in 384 MTP format. Cells were seeded at 7,500 cells/well in 25 μl/well complete growth medium without selection antibiotics in 384-well plates. Twenty-four hours later, cells ere assayed for the response to various compounds using the Ca^2+ sensitive photo-protein stably expressed in the cells as readout.
(§5) The experiment was performed in a 384-well format according to the following procedure: • 24h after seeding, pre-incubate the cells at room temperature for 1 hour. • Then remove the culture medium. • Load cells with 20 μL/well of standard tyrode buffer+10 μM ceolenterazine. • Incubate cell plates for 3 hours at RT. • Inject 10 μL/w of 3× concentrated test compounds and controls in assay buffer at the FLIPRTETRA and monitor the kinetic response over a period of 90 seconds.
(§6) Data from FLIPRTETRA measurements were analyzed with the Genedata Screener© software. The following examples are meant to illustrate, but in no way to limit, the claimed invention.

[2] = molecular target: T1, hCX3CR1; assay: ChAMPion assay (CHO ChAMPion/CX3CR1 K1.6, cAMP/CNG channel, photoprotein luminescence); set-up: expressed in transfected cells; stably expresses a Ca2+ sensitive photo-protein; settings: ChAMPion assay, CHO ChAMPion/CX3CR1 K1.6, Forskolin 3 μM; read-out: hCX3CR1 agonism EC50
Description: Buffers and reagents. PBS (D-PBS without calcium and magnesium; EuroClone); Trypsin (Trypsin 0.05%, EDTA 0.02% in PBS; EuroClone); DMSO (Sigma); Tyrode buffer Ca^2+ free: in-house solution (130 mM NaCl, 5 mM KCl, 1 mM MgCl^2, 5 mM NaHCO3, 20 mM HEPES (pH 7.4); sterile filtered and autoclaved); Tyrode buffer 10 mM Ca^2+: in-house solution (130 mM NaCl, 5 mM KCl, 10 mM CaCl2), 1 mM MgCl2, 5 mM NaHCO3, 20 mM HEPES, in water at pH 7.4, sterile filtered); Coelenterazine, native (Biosynth); stock 10 mM; Agonist: Recombinant Human Fractalkine (CX3CL1) (PeproTech); stock: 10 μM in standard Tyrode buffer/BSA 01%; stored at −20° C.
Cell line. The final clone for the hCX3CR1 assay was CHO ChAMPion/CX3CR1 K1.6. ChAMPion technology is based on the co-expression of a Ca^2+ sensitive photoprotein and of a cyclic nucleotide-gated (CNG) channel acting as a cAMP biosensor in a CHO-K1 cell line. CNG channels are non-selective ligand gated cation channels that can be opened by the direct interaction with either cAMP or cGMP, at the intracellular C-terminus site of the channel. Channel opening allows the flux of extracellular calcium into the cell cytoplasm and its transient elevation can be recorded by means of several different calcium indicators. In the chAMPion system, the CNG channel has been modified to display sensitivity to cAMP levels in the physiological range. In addition the calcium influx through the opened channel is immediately detected by the recording of the photoprotein-emitted flash type luminescence signal.
The chAMPion cell line system can monitor the activation of transfected Gαi-coupled receptors, which elicit changes in 3,‘5’-adenosine cyclic monophosphate (cAMP) levels, which in turn is responsible for CNG opening and consequent Ca^2+ influx.
as §4, with “Experiments were” for “Experiments ere”, “at 10,000” for “at 7,500”, “25 μL/well” for “25 μl/well”, “cells were” for “cells ere”
The experiment was performed in a 384-well format according to the following procedure: • 24h after seeding, pre-incubate the cells at room temperature for 1 hour. • Then remove the culture medium. • Load cells with 20 μL/well of Ca^2+ free tyrode buffer+ceolenterazine 5 μM. • Incubate cell plates for 4 hours at RT. • 10 μl/well of 3× concentrated compounds in Ca^2+ free tyrode buffer+Forskolin 9 μM (final Forskolin concentration=3 μM) are applied to the cells (at 10 μl/s). Ten minutes later a second injection is performed: 10 μl/well of Ca^2+ free tyrode buffer+BSA 0.04% (final BSA concentration=0.01%). Twenty minutes later a third injection is performed: 20 μl/well of 10 mM Ca^2+ tyrode buffer (final Ca^2+ concentration was 3.3 mM) and luminescence is recorded for 90 seconds.
(§7) Data from FLIPRTETRA measurements are analyzed with the Genedata Screener© software.

[3] = molecular target: T2, mCX3CR1 (Mus musculus, UniProt Q9Z0D9); assay: Ga16 assay, CX3CR1 agonism, Ca2+ sensitive photo-protein readout (FLIPRTETRA); settings: mouse CX3CR1 cell line
T2 construct: expressed in transfected cells; stably expresses a Ca2+ sensitive photo-protein
T2 sequence (Q9Z0D9 1-354): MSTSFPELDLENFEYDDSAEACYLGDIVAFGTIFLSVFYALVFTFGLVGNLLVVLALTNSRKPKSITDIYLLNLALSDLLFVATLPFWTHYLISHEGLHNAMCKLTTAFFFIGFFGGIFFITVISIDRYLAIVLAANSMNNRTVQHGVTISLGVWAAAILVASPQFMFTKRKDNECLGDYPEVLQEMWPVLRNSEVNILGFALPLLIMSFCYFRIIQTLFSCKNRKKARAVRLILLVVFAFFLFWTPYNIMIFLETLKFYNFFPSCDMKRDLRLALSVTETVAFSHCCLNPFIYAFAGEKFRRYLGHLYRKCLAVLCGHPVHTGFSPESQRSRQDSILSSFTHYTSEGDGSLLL
Description: as §1, §2, §3, §4, §5, §6

[4] = molecular target: T3, rCX3CR1 (Rattus norvegicus, UniProt P35411); assay: as above; settings: rat CX3CR1 cell line
T3 construct: expressed in transfected cells; stably expresses a Ca2+ sensitive photo-protein
T3 sequence (P35411 1-354): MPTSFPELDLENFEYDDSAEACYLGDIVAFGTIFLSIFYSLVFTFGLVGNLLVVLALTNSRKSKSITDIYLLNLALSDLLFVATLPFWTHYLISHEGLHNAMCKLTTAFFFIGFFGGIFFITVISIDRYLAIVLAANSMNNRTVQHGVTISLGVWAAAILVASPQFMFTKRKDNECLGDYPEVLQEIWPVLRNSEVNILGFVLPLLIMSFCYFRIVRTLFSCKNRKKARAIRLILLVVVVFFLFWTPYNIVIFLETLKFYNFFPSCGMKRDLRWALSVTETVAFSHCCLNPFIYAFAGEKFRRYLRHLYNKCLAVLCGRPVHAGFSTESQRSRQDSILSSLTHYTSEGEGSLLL
Description: as §1, §2, §3, §4, §5, §6

[5] = molecular target: T1, hCX3CR1; assay: Suchi5 assay (HEK/NatClytin/CNG/Suchi5 transiently transfected hCX3CR1, Fluo-8 Ca2+ readout); set-up: expressed in transfected cells; stably expresses a Ca2+ sensitive photo-protein; settings: Suchi5 assay, HEK/NatClytin/CNG/Suchi5 transfected with hCX3CR1; read-out: hCX3CR1 agonism EC50
Description: Buffers and reagents. PBS (D-PBS without calcium and magnesium; EuroClone); Trypsin (Trypsin 0.05%, EDTA 0.02% in PBS; EuroClone); Opti-MEM medium (Thermo Fisher); DMSO (Sigma); Standard tyrode buffer: in-house solution (130 mM NaCl, 5 mM KCl, 2 mM CaCl2), 1 mM MgCl2, 5 mM NaHCO3, 20 mM HEPES in water at pH 7.4; sterile filtered); Screen Quest™ Fluo-8 No Wash Calcium Assay Kit (AAt Bioquest®); Lipofectamine® 2000 Reagent (Thermo Fisher); Agonist: Recombinant Human Fractalkine (CX3CL1) (PeproTech); stock: 10 μM in standard Tyrode buffer/BSA 01%; stored at −20° C.
Cell line. The final cell line for CX3CR1-Suchi5 assay is HEK/NatClytin/CNG/Suchi5 transiently transfected hCX3CR1 cDNA. In this cell line native Gαi signaling is switched to Gαq pathway thanks to the overexpression of a Gαiq chimeric G protein (called Suchi5) to direct Gαi activation towards Ca^2+ release for measurement.
Assay protocol. Experiments are performed in 384 MTP format. Transiently transfected cells are seeded at 20,000 cells/well in 25 μl/well Opti-MEM medium without selection antibiotics in 384-well plates. 4-5-hours later 25 μL/well of complete medium with 20% of FBS are added to the cells. Twenty-four hours later, cells are assayed for the response to various compounds using a fluorescent Ca^2+ sensitive dye (FLUO8-No Wash Dye) as readout.
The experiment is performed in a 384-well format according to the following procedure: • 24h after seeding, remove the culture medium. • Load cells with 20 μL/well of 0.5X FLUO-8 No Wash Dye diluted in assay buffer. • Incubate cell plates for 1 hour at RT. • Inject 10 μL/w of 3× concentrated test compounds and controls in assay buffer at the FLIPRTETRA and monitor the kinetic response over a period of 90 seconds.
as §7

Row | SMILES | pEC50 [1] | pEC50 [2] | pEC50 [3] | pEC50 [4] | pEC50 [5]
1 | O=C(NCC1(CN2C[C@H]3CCO[C@@H]3C2)CCCC1)c1cc2c(s1)CCCCCC2 [Example 69, N-[[1-[[(3aR,6aS)-2,3,3a,4,6,6a-hexahydrofuro[2,3-c]pyrrol-5-yl]methyl]cyclopentyl]methyl]-4,5,6,7,8,9-hexahydrocycloocta[b]thiophene-2-carboxamide] | 4.74 | 5.26 | 4.47 | 4.69 | –
2 | CN(C)CC1(CNC(=O)c2cc3c(s2)CCCCCC3)CCCCC1 [Example 22, N-[[1-[(dimethylamino)methyl]cyclohexyl]methyl]-4,5,6,7,8,9-hexahydrocycloocta[b]thiophene-2-carboxamide] | 4.94 | 5.89 | 4.82 | 4.86 | –
3 | O=C(NCC1(CN2CCC2)CCCC1)c1cc2c(s1)CCCCCC2 [Example 14, N-[[1-(azetidin-1-ylmethyl)cyclopentyl]methyl]-4,5,6,7,8,9-hexahydrocycloocta[b]thiophene-2-carboxamide] | 5.04 | 5.80 | 4.82 | 5.03 | –
4 | CN(C)CC1(CNC(=O)c2cc3c(s2)CCCCCC3)Cc2ccccc2C1 [Example 10, N-[[2-[(dimethylamino)methyl]-1,3-dihydroinden-2-yl]methyl]-4,5,6,7,8,9-hexahydrocycloocta[b]thiophene-2-carboxamide] | 4.69 | 4.91 | 4.71 | 4.73 | –
5 | O=C(NCC1(CN2CCC(O)C2)CCCC1)c1cc2c(s1)CCCCCC2 (single isomer, unassigned) [Example 64, N-[[1-[(3-hydroxypyrrolidin-1-yl)methyl]cyclopentyl]methyl]-4,5,6,7,8,9-hexahydrocycloocta[b]thiophene-2-carboxamide] | 4.99 | – | 4.86 | 5.04 | 5.06
6 | COC1(C)CCN(CC2(CNC(=O)c3cc4c(s3)CCCCCC4)CCC2)CC1 [Example 48, N-[[1-[(4-methoxy-4-methylpiperidin-1-yl)methyl]cyclobutyl]methyl]-4,5,6,7,8,9-hexahydrocycloocta[b]thiophene-2-carboxamide] | 4.73 | – | 4.74 | 4.86 | 5.00
7 | CC1CCCC1(CNC(=O)c1cc2c(s1)CCCCCC2)CN1CCCC1 (centres unmarked) [Example 62, N-[[2-methyl-1-(pyrrolidin-1-ylmethyl)cyclopentyl]methyl]-4,5,6,7,8,9-hexahydrocycloocta[b]thiophene-2-carboxamide] | 4.68 | – | 4.00 | 4.39 | 4.89
8 | CN(C)CC1(CNC(=O)c2cc3c(s2)CCCCCC3)CC(F)(F)C1 [Example 56, N-[[1-[(dimethylamino)methyl]-3,3-difluorocyclobutyl]methyl]-4,5,6,7,8,9-hexahydrocycloocta[b]thiophene-2-carboxamide] | 4.73 | – | 4.60 | 4.62 | 5.02
